The values below come from paper PMC8584349 (International Journal of Molecular Sciences, 2021).

What all share (conditions): 12 h
Experiment [1] concerns SARS-CoV-2 B.1.1.7 (Alpha) PsV.
For experiment [2], the system named is SARS-CoV-2 B.1.351 (Beta) PsV.
The test system of experiment [3] is SARS-CoV-2 P.1 (Gamma) PsV.
In experiment [4] the test system is SARS-CoV-2 B.1.617.2 (Delta) PsV.

For the molecule `CC[C@H](C)[C@H](NC(=O)[C@H](C)NC(=O)[C@H](CCC(=O)O)NC(=O)[C@H](CCC(=O)O)NC(=O)[C@H](CC(C)C)NC(=O)[C@H](CCCCN)NC(=O)[C@H](CCCCN)NC(=O)[C@H](CCSC)NC(=O)[C@H](CCC(=O)O)NC(=O)[C@H](Cc1ccc(O)cc1)NC(=O)[C@H](CCC(=O)O)NC(=O)[C@H](CC(C)C)NC(=O)[C@H](CC(=O)O)NC(=O)[C@H](CC(C)C)NC(=O)[C@H](Cc1ccccc1)NC(=O)[C@@H](NC(=O)[C@@H](NC(=O)[C@H](CC(N)=O)NC(=O)[C@@H](NC(=O)[C@H](CCC(N)=O)NC(=O)[C@H](CC(=O)O)NC(=O)[C@H](CC(C)C)NC(=O)[C@@H](N)CO)[C@@H](C)CC)C(C)C)[C@@H](C)O)C(=O)N[C@@H](CCCCN)C(=O)N[C@@H](CCCCN)C(=O)N[C@@H](CC(C)C)C(=O)N[C@@H](CCC(=O)O)C(=O)N[C@@H](CCC(=O)O)C(=O)N[C@@H](CO)C(=O)N[C@@H](Cc1ccc(O)cc1)C(=O)N[C@H](C(=O)N[C@@H](CC(=O)O)C(=O)N[C@@H](CC(C)C)C(=O)N[C@@H](CCCCN)C(=O)N[C@@H](CCC(=O)O)C(=O)N[C@@H](CC(C)C)C(=O)O)[C@@H](C)CC` [EK1], the IC50 (as a rule, the midpoint of a concentration-inhibition curve) in experiment [1] stood at 4.61 µM; in experiment [2] it was 2290 nM; in experiment [3], 1320 nM; in experiment [4], 480 nM.
